The values below come from paper PMC4619705 (PLoS ONE, 2015).

A word on the EC50: it is the midpoint of the concentration-response curve.

One test deals with T1, β3γ2L GABAARs (Homo sapiens, UniProt P18507+P28472).
T1 construct: expressed in transfected cells; host or cells: Xenopus laevis oocytes injected with β3 and γ2L mRNAs at 1:1 to 1:100
As to the kind of experiment: Two-electrode voltage clamp of β3γ2L GABAARs expressed at various β3:γ2L mRNA ratios in Xenopus oocytes. Particulars: for Expression level (current response elicited by GABA): 3 mM GABA; for Frac (95% CI), proportion of maximal response mediated by the more potent component / n H_1 (Hill slope) / n H_2 (Hill slope): biphasic fit; for n H_1 (Hill slope) / n H_2 (Hill slope): Hill slopes constrained to 1; for EC50: EC50 (95% CI) of direct activation; for EC50 / E max ± SEM (300 μM 2’MeO6MF-elicited current normalised against 3 mM GABA response) / n H ± SEM (Hill slope) of direct activation: -60 mV; for 2’MeO6MF activity: 100 μM; for Enhancement of GABA current (co-application): GABA EC3–10 + 100 or 300 μM ligand, data not shown. It counts as cell-based. An excerpt: Human complementary DNA (cDNA) of GABAAR α2 subunit (vector: pCMV6-XL5) was purchased from OriGene Technologies (Rockville, MD, USA), and the human β3 (vector: pGEMHE) and γ2L (vector: pCDM8) subunits were generous gifts from Dr. Bjarke Ebert (H. Lundbeck A/S, Valby, Denmark) and Dr. Paul Whiting (Merck, Sharp and Dohme Research Laboratories, Harlow, Essex, UK) respectively. […] Plasmid vectors with the cDNA incorporated were linearised using appropriate restriction endonucleases (α2: SmaI; β3: NheI; γ2L: NotI). Capped RNA transcripts were synthesised from linearised plasmids using the mMessage mMachine T7 transcript kit from Ambion (Austin, TX, USA). Purified messenger RNA (mRNA) was dissolved in nuclease-free water (Ambion, Austin, TX, USA), and its quality was assessed using 1% agarose gel electrophoresis. The concentration of each subunit mRNA was measured using Nanodrop ND-100 UV-Vis spectrophotometer (Thermo Fisher Scientific, North Ryde, NSW, Australia).
Various combinations of α2, β3 and γ2L subunit mRNAs were mixed to different ratios as stated in the text, and diluted accordingly to a concentration of 5 ng/μL (unless otherwise stated). […] Injected oocytes were stored in ND96 storage solution supplemented with 50 μg/mL gentamycin and tetracycline at 18°C. Two-electrode voltage clamp recordings were performed on oocytes 2–4 days post-injection at room temperature (20–25°C) using a GeneClamp 500B amplifier (ADInstruments, Sydney, NSW, Australia) or a Warner OC-725C Oocyte Clamp (Warner Instrument Corp, Hamden, CT, USA). […] The recording microelectrodes (0.2–1.1 MΩ) were generated from capillary glass (Harvard Apparatus, Holliston, MA, USA) using a single-stage glass microelectrode puller (Narishige, Tokyo, Japan), and were filled with 3 M KCl solution. The perfusion system was built using a series of polycarbonate, high-density polyethylene two-way stopcocks (Qosina, Edgewood, NY, USA), connected through tubing to the recording chamber (100 μL), where the oocyte was continuously perfused with ND96 recording solution (96 mM NaCl, 2 mM KCl, 1 mM MgCl2, 1.8 mM CaCl2, 5 mM HEPES hemisodium; pH 7.4) at an approximate rate of 5 mL/min.
Perfusates containing these chemicals were made up fresh before each application. The concentration-response curves of agonists were obtained by exposing oocytes to increasing concentrations of agonists until the currents peaked. […] All experiments were performed using at least two different batches of oocytes.
Prism (version 5.04; GraphPad Software, La Jolla, CA, USA) was used for data analysis.
In all cases, we constrained the bottom to 0, and when fitting data to the biphasic model, the Hill slopes were constrained to 1. Statistical comparisons of results for different injection ratios of β3γ2L receptors were performed using ANOVA with Tukey’s post-hoc test. When comparing results from different injection ratios of β3γ2L receptors with α2β3γ2L receptors, the ANOVA Dunnett’s test was used. Pairwise comparisons were performed using Student’s t test. Statistical significance was attained at p < 0.05.
In general terms: Two-electrode voltage clamp holds a large cell at a set potential and records current.

For another test, the target named is T2, α2β3γ2L GABAARs (Homo sapiens, UniProt P18507+P28472+P47869).
T2 construct: expressed in transfected cells; host or cells: Xenopus laevis oocytes injected with capped mRNA, α2:β3:γ2L 3:1:3
T2 sequence (P47869 29-451): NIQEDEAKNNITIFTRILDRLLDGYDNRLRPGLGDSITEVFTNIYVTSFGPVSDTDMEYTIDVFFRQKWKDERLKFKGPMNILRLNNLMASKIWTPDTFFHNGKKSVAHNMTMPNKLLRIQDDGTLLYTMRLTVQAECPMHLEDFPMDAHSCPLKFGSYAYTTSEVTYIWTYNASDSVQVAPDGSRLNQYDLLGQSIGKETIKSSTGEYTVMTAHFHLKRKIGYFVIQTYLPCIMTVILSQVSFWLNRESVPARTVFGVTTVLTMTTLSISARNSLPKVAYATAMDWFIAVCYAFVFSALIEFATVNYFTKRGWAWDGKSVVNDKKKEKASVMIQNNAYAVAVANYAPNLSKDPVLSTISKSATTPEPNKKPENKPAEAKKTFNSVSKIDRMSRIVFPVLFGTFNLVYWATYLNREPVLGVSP
T2 sequence (P28472 26-473): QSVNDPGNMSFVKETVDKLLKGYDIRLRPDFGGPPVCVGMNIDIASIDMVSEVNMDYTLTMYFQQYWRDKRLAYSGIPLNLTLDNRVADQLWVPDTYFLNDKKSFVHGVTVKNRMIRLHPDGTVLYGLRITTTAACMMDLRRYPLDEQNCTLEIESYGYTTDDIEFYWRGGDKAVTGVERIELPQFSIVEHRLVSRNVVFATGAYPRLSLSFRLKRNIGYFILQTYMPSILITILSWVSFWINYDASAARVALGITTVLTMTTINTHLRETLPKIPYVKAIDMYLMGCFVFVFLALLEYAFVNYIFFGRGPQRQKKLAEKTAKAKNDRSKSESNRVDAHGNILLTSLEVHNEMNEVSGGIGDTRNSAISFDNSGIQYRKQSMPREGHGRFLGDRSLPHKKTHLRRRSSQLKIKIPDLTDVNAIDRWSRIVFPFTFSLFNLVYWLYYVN
T2 sequence (P18507 40-475): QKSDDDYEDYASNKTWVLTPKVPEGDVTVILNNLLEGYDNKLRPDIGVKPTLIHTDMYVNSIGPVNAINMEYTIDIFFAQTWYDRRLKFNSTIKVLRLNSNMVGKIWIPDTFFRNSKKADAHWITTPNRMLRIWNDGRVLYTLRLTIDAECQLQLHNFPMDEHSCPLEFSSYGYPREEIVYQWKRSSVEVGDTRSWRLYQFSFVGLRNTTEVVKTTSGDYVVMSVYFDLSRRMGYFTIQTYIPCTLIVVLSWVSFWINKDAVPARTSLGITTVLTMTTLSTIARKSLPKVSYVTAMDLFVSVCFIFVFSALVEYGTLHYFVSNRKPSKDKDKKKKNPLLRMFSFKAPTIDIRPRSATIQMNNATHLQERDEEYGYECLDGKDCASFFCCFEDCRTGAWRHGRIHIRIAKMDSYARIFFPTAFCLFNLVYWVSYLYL
Details: method as in PMID 21797842. The settings on record: α2β3γ2L 1:1:10 injection ratio; cited from earlier work.

“And” between values parts separate entries of the source, which are not always exact repeats. Equal values may be shown once. “Also recorded” adds a separate entry of the source.

T1 sequence (P28472 26-473): as the sequence (P28472 26-473) above
T1 sequence (P18507 40-475): as the sequence (P18507 40-475) above

In the case of `NCCCC(=O)O` [GABA, γ-aminobutyric acid], the “Expression level (current response elicited by GABA)” value on β3γ2L GABAARs (β3γ2L 1:1) was determined as 110 ± 34 nA; on β3γ2L GABAARs (β3γ2L 1:5), 270 ± 80 nA; at β3γ2L GABAARs (β3γ2L 1:10), 310 ± 61 nA; at β3γ2L GABAARs (β3γ2L 1:15) it was 490 ± 47 nA; on β3γ2L GABAARs (β3γ2L 1:20), 860 ± 87 nA; at β3γ2L GABAARs (β3γ2L 1:50), 1000 ± 160 nA. In addition, the “Expression level (current response elicited by GABA)” value on β3γ2L GABAARs (β3γ2L 1:100) came out at 1100 ± 100 nA. For the same compound, the “I max ± SEM (current amplitude elicited by 30 mM GABA)” value on β3γ2L GABAARs (β3γ2L 1:15) amounted to 780 ± 220 nA; at β3γ2L GABAARs (β3γ2L 1:50), 1000 ± 250 nA; at β3γ2L GABAARs (β3γ2L 1:100), 1000 ± 97 nA. In addition, the “n H_1 ± SEM (Hill slope)” value at β3γ2L GABAARs (β3γ2L 1:15, monophasic fit) was 0.54 and 0.54 ± 0.040. Moreover, the “Frac (95% CI), proportion of maximal response mediated by the more potent component” value at β3γ2L GABAARs (β3γ2L 1:50) is 0.74 (0.67–0.80); at β3γ2L GABAARs (β3γ2L 1:100), 0.71 (0.65–0.77). Also, the “n H_1 (Hill slope)” value on β3γ2L GABAARs (β3γ2L 1:50) and on β3γ2L GABAARs (β3γ2L 1:100) was 1.0 each time. In addition, the “n H_2 (Hill slope)” value at β3γ2L GABAARs (β3γ2L 1:50) and on β3γ2L GABAARs (β3γ2L 1:100) was 1.0 in each case.
For `COc1ccccc1-c1cc(=O)c2cc(C)ccc2o1` [2’MeO6MF, 2’-methoxy-6-methylflavone], on α2β3γ2L GABAARs, the “Agonist efficacy (direct activation)” value was “full agonist”. The EC50 on β3γ2L GABAARs (β3γ2L 1:15) is 45 µM; at β3γ2L GABAARs (β3γ2L 1:50), 62 µM; at β3γ2L GABAARs (β3γ2L 1:100) it was 63 µM. Further, the “2’MeO6MF activity” value is “inhibited the constitutive activity; also recorded: inverse agonist; also recorded: Inverse agonism” on β3γ2L GABAARs (β3γ2L 1:1); “mixed agonist and inverse agonist activity; also recorded: mixed inverse agonist and agonist effect; also recorded: Inverse agonism/activation” on β3γ2L GABAARs (β3γ2L 1:5); “mixed agonist and inverse agonist activity; also recorded: mixed inverse agonist and agonist effect; also recorded: Inverse agonism/activation” at β3γ2L GABAARs (β3γ2L 1:10); “directly activated receptors expressed efficaciously; also recorded: Activation” at β3γ2L GABAARs (β3γ2L 1:15); “variable efficacy; also recorded: Activation” at β3γ2L GABAARs (β3γ2L 1:20); “activation with low efficacy” on β3γ2L GABAARs (β3γ2L 1:50). At β3γ2L GABAARs (β3γ2L 1:100), the “2’MeO6MF activity” value is reported as “activation with low efficacy”. Further, the “Elicited current, % of the 3 mM GABA responses (mean ± SEM)” value was 87 ± 4.5% at β3γ2L GABAARs (β3γ2L 1:15, 100 μM ligand); “approximately 34 ± 4.0%” at β3γ2L GABAARs (β3γ2L 1:20, 100 μM ligand); “around 6.7 ± 1.2%” at β3γ2L GABAARs (β3γ2L 1:50, 100 μM ligand); approximately 5.1 ± 0.72% on β3γ2L GABAARs (β3γ2L 1:100, 100 μM ligand). For the same compound, the “E max ± SEM (300 μM 2’MeO6MF-elicited current normalised against 3 mM GABA response)” value at β3γ2L GABAARs (β3γ2L 1:15) amounted to 1.2 ± 0.10; on β3γ2L GABAARs (β3γ2L 1:50), 0.086 ± 0.018; at β3γ2L GABAARs (β3γ2L 1:100) it was 0.10 ± 0.020. Besides, the results for the “n H ± SEM (Hill slope) of direct activation” value on β3γ2L GABAARs (β3γ2L 1:15), at β3γ2L GABAARs (β3γ2L 1:50) and at β3γ2L GABAARs (β3γ2L 1:100) were 1.8 ± 0.42, 1.4 ± 0.88 and 1.6 ± 0.76, respectively. Moreover, the “Enhancement of GABA current (co-application)” value at β3γ2L GABAARs (β3γ2L 1:15) and at β3γ2L GABAARs (β3γ2L 1:100) was “No enhancement” throughout. At β3γ2L GABAARs (β3γ2L 1:20, 100 μM ligand), the “Relative efficacy, range across oocytes, % of the 3 mM GABA responses” value is recorded as 1.0 to 120%.
